Assay results as given in patent publication US20070213291A1, “Therapeutically useful synthetic oligonucleotides” (priority 1999, published 2007).

How the values were obtained:
[1] = tested on: Jurkat human leukemia T cells; test: Inhibition of Jurkat human leukemia T cell proliferation (MTT reduction); type: cell-based; details: 100 μg/ml sequence, 48 h, 2.5×10^5 cells/ml
How it was run: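 Jurkat cells at 2.5×10^5 cells/ml exposed to 100 μg/ml of 2–45-base A/C/G/T sequences (0 μg/ml control) for 48 h, 37° C, 5% CO2. Viability by MTT reduction read at 570 nm.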

[2] = tested on: THP-1 human acute monocytic leukemia cells; test: Cytokine production by THP-1 cells (ELISA); type: cell-based; details: THP-1, 1×10^6 cells, 100 μg/ml, 48 h; for ↑ IL-12 (fold increase treated vs control cells): p70 complex and free p40
How it was run: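 1×10^6 cells exposed to 100 μg/ml of each oligonucleotide sequence for 48 h at 37° C in 5% CO2, unless stated otherwise. Cytokines quantified in culture supernatant by ELISA, IL-12 assay detecting both p70 and free p40; values are fold increase over untreated control cells.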

[3] = tested on: IMC tumor; details: premixed with IMC cells and injected into CDF-1 mice; cited from earlier work
[4] = tested on: MCF-7 human breast cancer cells; test: Inhibition of MCF-7 cell proliferation (MTT); type: cell-based; details: 100 μg/ml, 48 h, 5×10^5 cells/ml
How it was run: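 Cells at 2.5×10^5 cells/ml (GT 3- and 6-base series at 5×10^5 cells/ml) treated with 100 μg/ml of 2-45-base oligonucleotide sequences versus untreated control for 48 h at 37 °C, 5% CO2. Proliferation read by MTT reduction at 570 nm.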

[5] = tested on: LNCaP human prostate cancer cells; test: Inhibition of LNCaP cell proliferation (MTT); type: cell-based; details: 100 μg/ml, 48 h, 5×10^5 cells/ml
How it was run: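 Cells (2.5×10^5 or 5×10^5 cells/ml) exposed to 100 μg/ml of 2–45 base A/C/G/T sequences, including 6-base GT sequences, versus untreated control, 48 h at 37 °C, 5% CO2. Proliferation read by MTT reduction at 570 nm.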

[6] = tested on: EL-4 murine T lymphoma cells; test: Inhibition of EL-4 cell proliferation (MTT); type: cell-based; details: 100 μg/ml, 48 h
Description: (§1) Cells were seeded in 6 (1 ml/well), 24 (0.5 ml/well) or 96 (0.1 ml/well) well flat-bottom microplates and were maintained at 37° C. in a 5% CO2 atmosphere. Unless stated otherwise, 2.5×10^5 cells/ml were incubated with 0 μg/ml (control) and 100 μg/ml (treated) of 2 to 45 base sequences containing A, C, G and T for 48 h.
(§2) Cell proliferation was measured using dimethylthiazol-diphenyl-tetrazolium (MTT) reduction (Mosman et al. J. Immunol. Methods 65:55, 1983). MTT was measured at a wavelength of 570 nm using a multiplate spectrophotometer reader (ELX800, Bio-TEK Instruments Inc., Winooski, Vt.).
EL-4 murine lymphoma T cells are a suspension tumor model. EL-4 murine lymphoma T cells were incubated with 6, 18, 27 and 33 base GT sequences and with a 15 base ACG sequence (Table 18).

[7] = molecular target: T1, telomerase (Homo sapiens, UniProt O14746); test: PCR-telomeric repeat amplification protocol (TRAP) on Jurkat T cell extracts; type: biochemical; details: concentrations between 1 and 100 μg/ml, extracts from 2×10^5 Jurkat T cells
T1 construct: extracts from 2×10^5 Jurkat T cells were assayed using the PCR-telomeric repeat amplification protocol (TRAP); endogenous in cells; host or cells: Jurkat T cells (cell extract)
Description: To determine telomerase activity, extracts from 2×10^5 Jurkat T cells were assayed using the PCR-telomeric repeat amplification protocol (TRAP) (Roche, Laval, Québec, Canada).

[8] = tested on: Jurkat human leukemia T cells; test: Cell cycle stage in Jurkat cells (propidium iodide flow cytometry); type: cell-based; details: Jurkat, 24 h, 100 μg/ml
How it was run: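 Exponentially growing Jurkat cells were exposed for 24 h to 2–45-base A/C/G/T oligonucleotides, or at 1×10^6 cells/ml to 6-base GT and AC strands, alone (heated 10 min, 65 °C) or hybridized 1:1. Detergent-, trypsin-, RNase- and spermine-treated nuclei were propidium iodide-stained and scored for G0/G1, early/mid/late S and G2/M by doublet-discriminating flow cytometry.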

[9] = tested on: OVCAR-3 human ovarian cancer cells; test: Inhibition of OVCAR-3 cell proliferation (MTT); type: cell-based; details: 100 μg/ml, 48 h, 5×10^5 cells/ml
Description: as §1, §2
OVCAR-3 ovarian cancer cells are a p53 mutated, p21/waf-1/Cip deleted, metastatic human solid tumor model. OVCAR-3 cells (5×10^5 cells/ml) were incubated with 2, 6 and 18 base GT sequences and with a 6 base AGT sequence (Table 11).

[10] = tested on: SK-OV-3 human ovarian cancer cells; test: Inhibition of SK-OV-3 cell proliferation (MTT); type: cell-based; details: 100 μg/ml, 48 h, 5×10^5 cells/ml
Description: as §1, §2
SK-OV-3 ovarian cancer cells are a p53 mutated, p21/waf-1/Cip deleted, p15^ink4B deleted, p16^Ink4 deleted, metastatichuman solid tumor model. SK-OV-3 cells (5×10^5 cells/ml) were incubated with 2, 6 and 18 base GT sequences (Table 12).

[11] = tested on: MCF-7 human breast cancer cells; test: Cell cycle stage in MCF-7 cells (propidium iodide flow cytometry); type: cell-based; details: MCF-7, 5×10^5 cells/ml, 24 h
Description: Cell cycle stage was determined using a […]™ PLUS DNA commercial kit (Becton Dickinson). Briefly, nuclei from cells were obtained by dissolving the cell membrane in a nonionic detergent, eliminating the cell cytoskeleton and nuclear proteins with trypsin, digesting the cellular RNA with RNase and stabilizing the nuclear chromatin with spermine. Propidium iodide was added to the cell nuclei and their fluorescence was analyzed in a flow cytometer equipped with electronic doublet discrimination capability (FACSCalibur, Becton Dickinson, San Jose, Calif.). Accumulation of cells in G0/G1, early S (SE), mid S (SM), late S (SL) or G2/M phases of the cell cycle was analyzed using MODFIT LT software (Verity Software House Inc., Topsham, Mass.).
Exponentially growing Jurkat human leukemia T cells (Table 28) and MCF-7 human breast cancer cells (5×10^5 cells/ml) (Table 29) were incubated for 24 h with 2, 6, 15, 18, 27 and 45 base sequences containing A, C, G and T. The cells were collected and centrifuged and cell cycle stage was determined.

[12] = tested on: EL-4 murine T lymphoma cells; test: EL-4 murine T lymphoma in C57/BL6 mice; type: in vivo; details: after 4 weeks of treatment, compared with group 1 (saline)
Description: EL-4 murine T lymphoma cells are implanted into C57/BL6 mice. The mice are divided into 6 groups of 10 mice. On day 0, group 1 mice receive saline, group 2 mice receive 3 base GT SEQ ID NO:8, group 3 mice receive 6 base SEQ ID NO:25, group 4 mice receive 6 base AG SEQ ID NO:45, group 5 mice receive 18 base GT SEQ ID NO: 18 and group 6 mice receive 27 base GT SEQ ID NO:1. After 4 weeks of treatment, the mice are sacrificed and tumor mass is determined.

[13] = tested on: Burkitt lymphoma cells; details: Mata et al. 1997; cited from earlier work

T1 sequence (O14746 whole entry): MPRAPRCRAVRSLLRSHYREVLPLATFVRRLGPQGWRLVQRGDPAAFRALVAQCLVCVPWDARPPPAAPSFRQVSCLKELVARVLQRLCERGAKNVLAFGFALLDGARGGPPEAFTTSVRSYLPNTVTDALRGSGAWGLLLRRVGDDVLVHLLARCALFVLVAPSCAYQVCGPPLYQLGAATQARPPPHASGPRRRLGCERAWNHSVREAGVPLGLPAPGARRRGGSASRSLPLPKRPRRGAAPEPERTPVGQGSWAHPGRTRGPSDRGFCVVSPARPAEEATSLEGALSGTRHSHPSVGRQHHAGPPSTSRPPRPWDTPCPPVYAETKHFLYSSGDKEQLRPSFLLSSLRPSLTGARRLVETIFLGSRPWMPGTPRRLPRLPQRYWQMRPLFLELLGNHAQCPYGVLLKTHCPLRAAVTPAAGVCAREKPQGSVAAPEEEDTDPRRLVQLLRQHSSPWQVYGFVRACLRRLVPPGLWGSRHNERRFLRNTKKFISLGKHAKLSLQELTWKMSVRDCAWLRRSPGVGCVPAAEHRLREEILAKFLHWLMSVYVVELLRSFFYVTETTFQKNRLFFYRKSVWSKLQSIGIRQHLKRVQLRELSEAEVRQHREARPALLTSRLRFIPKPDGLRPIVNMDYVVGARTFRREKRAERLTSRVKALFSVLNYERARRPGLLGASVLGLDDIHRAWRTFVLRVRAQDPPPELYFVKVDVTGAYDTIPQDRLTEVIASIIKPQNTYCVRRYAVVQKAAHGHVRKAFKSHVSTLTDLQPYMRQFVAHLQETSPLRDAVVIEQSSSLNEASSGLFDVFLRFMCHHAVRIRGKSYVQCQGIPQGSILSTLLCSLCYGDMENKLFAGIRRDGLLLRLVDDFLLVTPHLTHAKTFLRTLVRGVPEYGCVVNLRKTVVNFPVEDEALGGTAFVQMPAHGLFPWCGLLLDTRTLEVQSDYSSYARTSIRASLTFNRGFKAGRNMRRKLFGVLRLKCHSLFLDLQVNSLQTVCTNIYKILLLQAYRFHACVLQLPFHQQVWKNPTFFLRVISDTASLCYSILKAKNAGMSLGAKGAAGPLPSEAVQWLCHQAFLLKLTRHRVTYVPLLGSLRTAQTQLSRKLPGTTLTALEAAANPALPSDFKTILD

AAAAGAAGTGGGGTGCCCCCACGATCACCAACGATGGTGTGTCCA (unmodified DNA) [BCG A-2, reference compound]
% INHIBITION of Jurkat human leukemia T cell proliferation [1]: 19%
↑ IL-6 (fold increase treated vs control cells) [2]: 3.9x
↑ IL-12 (fold increase treated vs control cells) [2]: 1.6x
inhibition of IMC tumor growth [3]: 88%

ACCGATGACGTCGCCGGTGACGGCAACACGACGGCCACCGTGCTG (unmodified DNA) [BCG A-4, reference compound]
% INHIBITION of Jurkat human leukemia T cell proliferation [1]: 9%
↑ IL-6 (fold increase treated vs control cells) [2]: 1.8x
↑ IL-12 (fold increase treated vs control cells) [2]: 0.9x
inhibition of IMC tumor growth [3]: 37%

GGGTGG [SEQ ID NO:25 phosphorothioate]
% INHIBITION of Jurkat human leukemia T cell proliferation [1]: 0%
% INHIBITION of MCF-7 human breast cancer cell proliferation [4]: 12%
% INHIBITION of LNCaP human prostate cancer cell proliferation [5]: −8%
% INHIBITION of EL-4 murine T lymphoma cell proliferation [6]: −8%
anti-telomerase activity [7]: Neither GT SEQ ID NO:25-phosphorothioate nor GT SEQ ID NO:49-phosphodiester showed any anti-telomerase actvity
% of cells in phase: G0/G1 [8]: 34.9%
% of cells in phase: G2/M [8]: 24.7%
% of cells in phase: SE [8]: 14.8%
% of cells in phase: SL [8]: 10.6%
% of cells in phase: SM [8]: 15.0%
Arrest (cell cycle) [8]: None
↑ IL-12 (fold increase treated vs control cells) [2]: 0.0x
↑ IL-12 (fold increase treated vs control cells) ([2]; listed as GsGsGsTsGsGs): 0 x

GTGTGTGTGTGTGTGTGT (unmodified DNA) [SEQ ID NO:18]
% INHIBITION of Jurkat human leukemia T cell proliferation [1]: 60%
% INHIBITION of OVCAR-3 human ovarian cancer cell proliferation [9]: 10%
% INHIBITION of SK-OV-3 human ovarian cancer cell proliferation [10]: 6%
% INHIBITION of EL-4 murine T lymphoma cell proliferation [6]: −2%
% of cells in phase: G0/G1 [8]: 24.2%
% of cells in phase: G2/M [8]: 16.4%
% of cells in phase: SE [8]: 26.7%
% of cells in phase: SL [8]: 8.7%
% of cells in phase: SM [8]: 24.0%
Arrest (cell cycle) [8]: Mid SM
% cells in phase: G0/G1 [11]: 25.3%
% cells in phase: G2/M [11]: 15.7%
% cells in phase: SE [11]: 31.6%
% cells in phase: SL [11]: 10.5%
% cells in phase: SM [11]: 16.9%
Arrest (cell cycle) [11]: Mid SM
↑ IL-6 (fold increase treated vs control cells) [2]: 2.8x
tumor mass [12]: less tumor mass than group 1 mice

TTAGGG (phosphodiester backbone) [SEQ ID NO:49, reference compound]
% INHIBITION of Jurkat human leukemia T cell proliferation [1]: 45%
% INHIBITION of OVCAR-3 human ovarian cancer cell proliferation [9]: 15%
% INHIBITION of SK-OV-3 human ovarian cancer cell proliferation [10]: 11%
anti-telomerase activity ([7]; listed as SEQ ID NO:49-phosphodiester): Neither GT SEQ ID NO:25-phosphorothioate nor GT SEQ ID NO:49-phosphodiester showed any anti-telomerase actvity
% of cells in phase: G0/G1 [8]: 24.6%
% of cells in phase: G2/M [8]: 12.8%
% of cells in phase: SE [8]: 37.2%
% of cells in phase: SL [8]: 5.9%
% of cells in phase: SM [8]: 19.5%
Arrest (cell cycle) [8]: Mid SM
% cells in phase: G0/G1 [11]: 20.0%
% cells in phase: G2/M [11]: 15.0%
% cells in phase: SE [11]: 18.6%
% cells in phase: SL [11]: 20.7%
% cells in phase: SM [11]: 25.7%
Arrest (cell cycle) [11]: Mid SM
↑ IL-6 (fold increase treated vs control cells) [2]: 6.7x
↑ IL-12 (fold increase treated vs control cells) [2]: 2.0x

TTAGGG (phosphorothioate backbone) [SEQ ID NO:49-phosphorothioate]
induction of apoptosis in Burkitt lymphoma cells [13]: induce apoptosis in Burkitt lymphoma cells
inhibition of telomerase activity [13]: inhibit telomerase activity
